The results in this text go back to patent publication US6979686B1, “Substituted pyrazoles as p38 kinase inhibitors” (Pharmacia Corporation, priority 2001, dated 2005).

Some results are limits rather than exact numbers.

T1 sequence (Q16539 whole entry): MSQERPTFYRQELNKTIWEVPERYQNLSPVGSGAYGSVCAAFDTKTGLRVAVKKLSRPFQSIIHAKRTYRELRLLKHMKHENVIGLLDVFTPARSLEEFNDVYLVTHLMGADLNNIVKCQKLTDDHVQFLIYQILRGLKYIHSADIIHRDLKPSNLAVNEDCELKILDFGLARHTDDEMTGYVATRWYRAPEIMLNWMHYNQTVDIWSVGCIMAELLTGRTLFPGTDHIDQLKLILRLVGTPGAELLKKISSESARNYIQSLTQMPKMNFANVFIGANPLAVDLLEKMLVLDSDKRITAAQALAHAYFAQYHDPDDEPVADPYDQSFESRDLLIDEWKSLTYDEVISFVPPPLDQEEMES

The first assay concerns the target T1, human p38 kinase alpha (Homo sapiens, UniProt Q16539).
T1 construct: GST (N, cleaved yes); made in house; host or cells: E. coli DH10B
Nature of the assay: p38 kinase in vitro assay, phosphorylation of biotinylated PHAS-I with 32P-ATP. It counts as biochemical. The note with it: @ 1.0 uM.
For the compound `NC(=O)NCCCc1[nH]nc(-c2ccc(F)cc2)c1-c1ccncc1` [Example B-1207], the “P38 alpha kinase % inhib @ conc.” value is given as 90.0% @.

For `O=C(NCCCc1[nH]nc(-c2ccc(F)cc2)c1-c1ccncc1)NCc1ccccc1` [Example B-1208], the “P38 alpha kinase % inhib @ conc.” value came to 82.0% @. On the same count and under the same terms, next, `O=C(NCCCc1[nH]nc(-c2ccc(F)cc2)c1-c1ccncc1)N1CCCC1` [Example B-1209]: 86.0% @; `O=C(NCCCc1[nH]nc(-c2ccc(F)cc2)c1-c1ccncc1)N1CCOCC1` [Example B-1210]: 82.0% @. Same read-out and setting: under `O=C(NCCCc1[nH]nc(-c2ccc(F)cc2)c1-c1ccncc1)Nc1ccc(F)cc1` [Example B-1211] stands 88.0% @; under `CN(C)C(=O)NCCCc1[nH]nc(-c2ccc(F)cc2)c1-c1ccncc1` [Example B-1212], 90.0% @. With `CNC(=O)NCCCc1[nH]nc(-c2ccc(F)cc2)c1-c1ccncc1` [Example B-1213], the “P38 alpha kinase % inhib @ conc.” value came out at 84.0% @.

In the case of `CN(C(=O)NCCCc1[nH]nc(-c2ccc(F)cc2)c1-c1ccncc1)c1ccccc1` [Example B-1214], the “P38 alpha kinase % inhib @ conc.” value worked out at 76.0% @. With `O=C(NCCCc1[nH]nc(-c2ccc(F)cc2)c1-c1ccncc1)Nc1ccccc1F` [Example B-1215], the “P38 alpha kinase % inhib @ conc.” value is given as 86.0% @. Regarding `Cc1cccc(C)c1NC(=O)NCCCc1[nH]nc(-c2ccc(F)cc2)c1-c1ccncc1` [Example B-1216], the “P38 alpha kinase % inhib @ conc.” value is on record as 88.0% @.

Take `C=CCNC(=O)NCCCc1[nH]nc(-c2ccc(F)cc2)c1-c1ccncc1` [Example B-1217]: the “P38 alpha kinase % inhib @ conc.” value was 87.0% @.

For `CCCNC(=O)NCCCc1[nH]nc(-c2ccc(F)cc2)c1-c1ccncc1` [Example B-1218], the “P38 alpha kinase % inhib @ conc.” value came to 88.0% @. Same read-out and setting: next, `O=C(NCCCc1[nH]nc(-c2ccc(F)cc2)c1-c1ccncc1)Nc1ccccc1` [Example B-1220]: 81.0% @; `O=C(NCCCc1[nH]nc(-c2ccc(F)cc2)c1-c1ccncc1)NCCc1ccccc1` [Example B-1221]: 82.0% @. The same measure, in the same setting: under `COc1ccc(NC(=O)NCCCc2[nH]nc(-c3ccc(F)cc3)c2-c2ccncc2)cc1` [Example B-1224] stands 82.0% @; under `CCN(CC)C(=O)NCCCc1[nH]nc(-c2ccc(F)cc2)c1-c1ccncc1` [Example B-1225], 89.0% @; under `CCNC(=O)NCCCc1[nH]nc(-c2ccc(F)cc2)c1-c1ccncc1` [Example B-1226], 89.0% @. As to `COc1ccc(NC(=O)NCCCc2[nH]nc(-c3ccc(F)cc3)c2-c2ccncc2)c(OC)c1` [Example B-1227], the “P38 alpha kinase % inhib @ conc.” value came to 83.0% @. The same measure, in the same setting: under `O=C(Cc1cccs1)NCCCc1[nH]nc(-c2ccc(F)cc2)c1-c1ccncc1` [Example B-1228] stands 90.0% @; under `CC(C)(C)C(=O)NCCCc1[nH]nc(-c2ccc(F)cc2)c1-c1ccncc1` [Example B-1229], 87.0% @. As to `CCCOC(=O)NCCCc1[nH]nc(-c2ccc(F)cc2)c1-c1ccncc1` [Example B-1230], the “P38 alpha kinase % inhib @ conc.” value is recorded as 90.0% @. With `CCOC(=O)NCCCc1[nH]nc(-c2ccc(F)cc2)c1-c1ccncc1` [Example B-1231], the “P38 alpha kinase % inhib @ conc.” value was determined as 94.0% @.

As for `O=C(NCCCc1[nH]nc(-c2ccc(F)cc2)c1-c1ccncc1)C1CCCN1` (centres unmarked) [Example B-1232], the “P38 alpha kinase % inhib @ conc.” value amounted to 81.0% @. Regarding `O=C(NCCCc1[nH]nc(-c2ccc(F)cc2)c1-c1ccncc1)[C@H]1CCCN1` [Example B-1233], the “P38 alpha kinase % inhib @ conc.” value came to 85.0% @. As for `CC(C)OC(=O)NCCCc1[nH]nc(-c2ccc(F)cc2)c1-c1ccncc1` [Example B-1234], the “P38 alpha kinase % inhib @ conc.” value is listed as 89.0% @.

Staying with this assay, now noted: in vitro P38-alpha kinase; read-out: P38 alpha kinase IC50.
As to `CC(=O)Nc1nc(C)c(S(=O)(=O)NCCCc2[nH]nc(-c3ccc(F)cc3)c2-c2ccncc2)s1` [Example B-1235], the IC50 (commonly the concentration that inhibits the measured activity by half) stood at 40 nM. The same measure, in the same setting: next, `CC(=O)Nc1ccc(S(=O)(=O)NCCCc2[nH]nc(-c3ccc(F)cc3)c2-c2ccncc2)cc1` [Example B-1236]: 100 nM. On the same count and under the same terms, under `O=S(=O)(NCCCc1[nH]nc(-c2ccc(F)cc2)c1-c1ccncc1)c1ccc(Br)cc1` [Example B-1237] stands 220 nM; under `O=S(=O)(NCCCc1[nH]nc(-c2ccc(F)cc2)c1-c1ccncc1)c1ccc(Cl)cc1` [Example B-1238], 140 nM. On the same count and under the same terms, next, `O=S(=O)(NCCCc1[nH]nc(-c2ccc(F)cc2)c1-c1ccncc1)c1cc(Cl)cc(Cl)c1O` [Example B-1241]: 40 nM; `O=C(O)c1ccccc1S(=O)(=O)NCCCc1[nH]nc(-c2ccc(F)cc2)c1-c1ccncc1` [Example B-1242]: 80 nM; `O=S(=O)(NCCCc1[nH]nc(-c2ccc(F)cc2)c1-c1ccncc1)c1cc(Cl)ccc1Cl` [Example B-1243]: 40 nM. As for `Cc1cc(C)c(S(=O)(=O)NCCCc2[nH]nc(-c3ccc(F)cc3)c2-c2ccncc2)c(C)c1` [Example B-1244], the IC50 turned out to be 260 nM. Still for that read-out and setting: under `O=S(=O)(NCCCc1[nH]nc(-c2ccc(F)cc2)c1-c1ccncc1)c1ccc2ccccc2c1` [Example B-1245] stands 490 nM. For the compound `O=S(=O)(NCCCc1[nH]nc(-c2ccc(F)cc2)c1-c1ccncc1)c1cccc2ccccc12` [Example B-1246], the IC50 worked out at 270 nM. For `O=[N+]([O-])c1ccccc1CS(=O)(=O)NCCCc1[nH]nc(-c2ccc(F)cc2)c1-c1ccncc1` [Example B-1247], the 50% inhibitory concentration (IC50) is under 100 nM. Same read-out and setting: under `O=S(=O)(NCCCc1[nH]nc(-c2ccc(F)cc2)c1-c1ccncc1)c1cccc2cccnc12` [Example B-1248] stands under 100 nM. For `CN(C)c1cccc2c(S(=O)(=O)NCCCc3[nH]nc(-c4ccc(F)cc4)c3-c3ccncc3)cccc12` [Example B-1249], the IC50 was 240 nM. For `CC(C)c1ccc(S(=O)(=O)NCCCc2[nH]nc(-c3ccc(F)cc3)c2-c2ccncc2)cc1` [Example B-1251], the IC50 was determined as 410 nM.

`Cc1c(Cl)cccc1S(=O)(=O)NCCCc1[nH]nc(-c2ccc(F)cc2)c1-c1ccncc1` [Example B-1252]: the IC50 is 170 nM. In the case of `O=S(=O)(NCCCc1[nH]nc(-c2ccc(F)cc2)c1-c1ccncc1)c1ccc(Cl)cc1Cl` [Example B-1253], the IC50 was determined as 150 nM. Still for that read-out and setting: next, `O=S(=O)(NCCCc1[nH]nc(-c2ccc(F)cc2)c1-c1ccncc1)c1ccc(F)cc1Cl` [Example B-1254]: 160 nM; `N#Cc1ccccc1S(=O)(=O)NCCCc1[nH]nc(-c2ccc(F)cc2)c1-c1ccncc1` [Example B-1255]: 12900 nM. The same measure, in the same setting: under `Cc1ccc(F)cc1S(=O)(=O)NCCCc1[nH]nc(-c2ccc(F)cc2)c1-c1ccncc1` [Example B-1256] stands 120 nM; under `O=S(=O)(NCCCc1[nH]nc(-c2ccc(F)cc2)c1-c1ccncc1)c1cc(Cl)c(Cl)s1` [Example B-1257], 1480 nM; under `O=S(=O)(NCCCc1[nH]nc(-c2ccc(F)cc2)c1-c1ccncc1)c1c(Cl)cccc1Cl` [Example B-1258], 70 nM. Still for that read-out and setting: next, `CCCCOc1ccc(S(=O)(=O)NCCCc2[nH]nc(-c3ccc(F)cc3)c2-c2ccncc2)cc1` [Example B-1261]: 740 nM.

For the compound `COc1ccc(OC)c(S(=O)(=O)NCCCc2[nH]nc(-c3ccc(F)cc3)c2-c2ccncc2)c1` [Example B-1262], the IC50 was under 100 nM. The same measure, in the same setting: next, `O=S(=O)(NCCCc1[nH]nc(-c2ccc(F)cc2)c1-c1ccncc1)c1ccccc1C(F)(F)F` [Example B-1263]: 1050 nM. As to `O=S(=O)(NCCCc1[nH]nc(-c2ccc(F)cc2)c1-c1ccncc1)c1ccc(C(F)(F)F)cc1` [Example B-1264], the IC50 was 320 nM.

For `CCc1ccc(S(=O)(=O)NCCCc2[nH]nc(-c3ccc(F)cc3)c2-c2ccncc2)cc1` [Example B-1265], the IC50 is 430 nM. Still for that read-out and setting: under `Cc1cccc(S(=O)(=O)NCCCc2[nH]nc(-c3ccc(F)cc3)c2-c2ccncc2)c1` [Example B-1266] stands under 100 nM; under `O=S(=O)(NCCCc1[nH]nc(-c2ccc(F)cc2)c1-c1ccncc1)c1cccc(Cl)c1` [Example B-1267], under 100 nM; under `O=S(=O)(NCCCc1[nH]nc(-c2ccc(F)cc2)c1-c1ccncc1)c1ccccc1Cl` [Example B-1268], under 100 nM. Turning to `O=S(=O)(NCCCc1[nH]nc(-c2ccc(F)cc2)c1-c1ccncc1)c1cc(Cl)cc(Cl)c1` [Example B-1269], the IC50 came to 460 nM. On the same count and under the same terms, under `O=S(=O)(NCCCc1[nH]nc(-c2ccc(F)cc2)c1-c1ccncc1)c1ccc(Cl)c(Cl)c1` [Example B-1270] stands 470 nM; under `Cc1cccc(Cl)c1S(=O)(=O)NCCCc1[nH]nc(-c2ccc(F)cc2)c1-c1ccncc1` [Example B-1272], 14 nM.

For `Cc1ccccc1S(=O)(=O)NCCCc1[nH]nc(-c2ccc(F)cc2)c1-c1ccncc1` [Example B-1274], the IC50 was under 100 nM. On the same count and under the same terms, under `COc1ccc(C)cc1S(=O)(=O)NCCCc1[nH]nc(-c2ccc(F)cc2)c1-c1ccncc1` [Example B-1275] stands under 100 nM; under `CC1(C)[C@@H]2CC[C@@]1(S(=O)(=O)NCCCc1[nH]nc(-c3ccc(F)cc3)c1-c1ccncc1)C(=O)C2` [Example B-1277], under 100 nM; under `O=S(=O)(NCCCc1[nH]nc(-c2ccc(F)cc2)c1-c1ccncc1)c1ccc(Cl)s1` [Example B-1278], 120 nM.

For `COc1ccc(Br)cc1S(=O)(=O)NCCCc1[nH]nc(-c2ccc(F)cc2)c1-c1ccncc1` [Example B-1279], the IC50 is under 100 nM.

Consider `O=S(=O)(NCCCc1[nH]nc(-c2ccc(F)cc2)c1-c1ccncc1)c1ccc2ccccc2c1` [Example B-1280], for which the IC50 was determined as 39 nM. On the same count and under the same terms, under `O=S(=O)(NCCCc1[nH]nc(-c2ccc(F)cc2)c1-c1ccncc1)c1cccc2nonc12` [Example B-1282] stands under 100 nM; under `O=C(NCc1ccc(S(=O)(=O)NCCCc2[nH]nc(-c3ccc(F)cc3)c2-c2ccncc2)s1)c1ccccc1` [Example B-1285], 57 nM.
